Each structure is given as a SMILES string.

This experiment has as its system phospho-Tau (S202,T205) in SH-SY5Y neuroblastoma cells. The experiment can be described thus: Okadaic acid-induced p-Tau accumulation in SH-SY5Y cells, co-incubation (AT8 immunoblot). It is filed as cell-based. The settings on record: 100 nM OA alone, 3 h. The procedure:
Reproducible hyperphosphorylated p-Tau accumulation can be induced in the SH-SY5Y neuroblastoma cell line following incubation with Okadaic Acid (OA), a small molecule inhibitor of protein phosphatase 2A (PP2A), according to the method described by Boban et al., J Neurosci Methods., S0165-0270(18)30297-8 (2018). In this experiment, SH-SY5Y cells were incubated with 100 nM OA alone or in combination with 2,4-DSPBN+NAC for three hours prior to harvesting the cells for immunoblot evaluations with the AT8 phospho-Tau (S202,T205) antibody or the housekeeping protein, GAPDH. […] Two doses of combinatorial 2,4-DSPBN+NAC (185 μM 2,4-DSPBN/500 μM NAC or 93 μM 2,4-DSPBN/250 μM NAC) were used in this experiment, each of which used a molar ratio that mimics the equal mass:mass ratios used in the in vivo studies (i.e. a 1:1 mass ratio of 2,4-DSPBN and NAC is equivalent to a 1:2.7 molar ratio).
Biological and technical replicates of the experiment described in FIG. 3 were conducted, and p-Tau(S202,T205) immunoblots (AT8 antibody) were subjected to densitometric evaluations of relative protein levels, using National Institutes of Health ImageJ software and the internal GAPDH protein standard. […]

`C=C1[C@@H](O)[C@@H]2O[C@]3(CC[C@H](/C=C/[C@@H](C)[C@@H]4CC(C)=C[C@@]5(O[C@H](C[C@@](C)(O)C(=O)O)CC[C@H]5O)O4)O3)CC[C@H]2O[C@@H]1[C@@H](O)C[C@H](C)[C@H]1O[C@@]2(CCCCO2)CC[C@H]1C` [OA, Okadaic Acid]: the “phospho-Tau(S202,T205) level relative to untreated control cells (immunoblot, FIG. 3)” value is listed as “marked phospho-Tau(S202,T205) accumulation”.
